Experimental data as given in patent US20230026360A1, “DETECTION OF MOLECULAR INTERACTIONS” (Orionis Biosciences, Inc., priority 2019, published 2023).
“Also recorded” adds a separate entry of the source.

Columns and labels:
Type in all cases: cell-based
[1] = biological target: CRBN-CSNK1A (CK1a) interaction (Homo sapiens, UniProt Q96SW2); experiment: MAPPIT forward assay, CRBN receptor fusion + CSNK1A1 gp130 fusion; design: MAPPIT chimeric receptor (EPO receptor extracellular domain + signaling-deficient leptin receptor part); expressed in transfected cells; host or cells: HEK293T; conditions: forward configuration; HEK293T cells; EPO; dose-response
From the text: (§1) The traditional MAPPIT assay has been used to monitor protein-protein interactions. A bait protein (protein A) is expressed as a fusion protein in which it is genetically fused to an engineered intracellular receptor domain of the leptin receptor, which is itself fused to the extracellular domain of the erythropoietin (Epo) receptor. Binding of Epo ligand to the Epo receptor component results in activation of receptor-associated intracellular JAK2. However, activated JAK2 cannot activate the leptin receptor to trigger STAT3 binding and its phosphorylation because its tyrosine residues, normally phosphorylated by activated JAK2, have been mutated. […] Activation of STAT3 can be monitored by introduction of a STAT3-responsive reporter gene, including a luciferase-encoding gene or a gene encoding a fluorescent marker such as GFP or some other type of Fluorescent Protein (EGFP etc.). […]
(§2) Full size proteins were fused for each of the target/prey proteins tested, except in the case of IKZF1 where isoform 7 was used. […] Luciferase activity was measured 24 hours after test compound treatment using the Luciferase Assay System kit (PROMEGA, Madison, Wis.) with an Ensight plate reader (PERKIN ELMER LIFE SCIENCES, Waltham, Mass.). […]

[2] = biological target: T1, CRBN-CSNK1A1 interaction (Homo sapiens, UniProt Q96SW2); experiment: MAPPIT inverse assay with alternative CSNK1A1 receptor fusion (leptin receptor extracellular domain, pCLG-CSNK1A1); conditions: inverse configuration, activated with leptin, 0, 0.1, 1, 10 μM, HEK293T
T1 construct: expressed in transfected cells; host or cells: HEK293T
Description: Cells were treated with leptin without or with the indicated dose of test compound at 24 hours after transfection. Luciferase activity was measured 24 hours after test compound treatment using the Luciferase Assay System kit (PROMEGA, Madison, Wis.) with an Ensight plate reader (PERKIN ELMER LIFE SCIENCES, Waltham, Mass.). […] Error bars represent standard deviations.

[3] = biological target: T2, CRBN-SALL4 interaction (Homo sapiens, UniProt Q96SW2); experiment: MAPPIT inverse assay, CRBN gp130 fusion + SALL4 receptor fusion; design: expressed in transfected cells; host or cells: HEK293T; conditions: inverse configuration; HEK293T cells; EPO; dose-response
From the text: as §1, §2

[4] = biological target: T3, CRBN (Homo sapiens, UniProt Q96SW2); experiment: CRBN inverse MAPPIT competition assay against TMP-lenalidomide hybrid ligand; conditions: 300 nM TMP-lenalidomide; leptin; HEK293T; specificity versus gp130-REM2 control (CTRL)
T3 construct: expressed in transfected cells; host or cells: HEK293T
From the text: As in Example 6, HEK293T cells were transfected with a plasmid encoding E. coli Dihydrofolate Reductase (DHFR) fused to the tails of the cytoplasmic domain of a mutated leptin receptor (pCLG-DHFR), a plasmid encoding a CRBN prey fused to the gp130 cytoplasmic domain or a plasmid encoding a gp130-REM2 control fusion that can directly interact with the leptin receptor of the DHFR fusion protein, and the STAT3 responsive pXP2d2-rPAPI-luciferase reporter plasmid—using a standard transfection method, as described (Lievens, et al. “Array MAPPIT: high-throughput interactome analysis in mammalian cells.” Journal of Proteome Research 8.2 (2009): 877-886). […] Data points in FIGS. 10A-B represent the average luciferase activity of triplicate samples derived from cells treated with leptin+test compound for the REM2 control (CTRL) or cells treated with leptin+hybrid ligand+test compound (CRBN) relative to leptin (CTRL) or leptin+hybrid ligand (CRBN) only treated samples (the signals obtained in absence of added test compound for both cases is set at 100% of luciferase activity on y-axis). Error bars represent standard deviations. Curves were fit using 4-parameter nonlinear regression in […] PRISM software.

[5] = biological target: T4, CRBN-IKZF1 interaction (Homo sapiens, UniProt Q96SW2); experiment: MAPPIT inverse assay, CRBN gp130 fusion + IKZF1 receptor fusion; conditions: inverse configuration; HEK293T cells; EPO; dose-response; IKZF1 isoform 7
T4 construct: expressed in transfected cells; host or cells: HEK293T
From the text: as §1, §2

[6] = biological target: T2, CRBN-SALL4 interaction; experiment: MAPPIT forward assay, CRBN receptor fusion + SALL4 gp130 fusion; design: MAPPIT chimeric receptor (EPO receptor extracellular domain + signaling-deficient leptin receptor part); expressed in transfected cells; host or cells: HEK293T; conditions: forward configuration; HEK293T cells; EPO; dose-response
From the text: as §1, §2

[7] = biological target: CRBN-IKZF3 interaction (Homo sapiens, UniProt Q96SW2); experiment: MAPPIT inverse assay, CRBN gp130 fusion + IKZF3 receptor fusion; design: expressed in transfected cells; host or cells: HEK293T; conditions: inverse configuration; HEK293T cells; EPO; dose-response
From the text: as §1, §2

[8] = biological target: CRBN-ZFP91 interaction (Homo sapiens, UniProt Q96SW2); experiment: MAPPIT inverse assay, CRBN gp130 fusion + ZFP91 receptor fusion; design: expressed in transfected cells; host or cells: HEK293T; conditions: inverse configuration; HEK293T cells; EPO; dose-response
From the text: as §1, §2

## O=C1CC[C@H](N2Cc3c(OCc4ccc(CN5CCOCC5)cc4)cccc3C2=O)C(=O)N1 [CC-220]
[1]
  compound-induced binding of CSNK1A (CK1a) to CRBN (luciferase reporter signal): only in the inverse assay setup an interaction signal response could be detected
[2]
  compound-induced CRBN-CSNK1A1 interaction (CSNK1A1 neosubstrate recruitment): CSNK1A1 neosubstrate recruitment can be detected
[3]
  compound-induced binding of SALL4 to CRBN (luciferase reporter signal): an interaction signal response could be detected
[4]
  competition with TMP-lenalidomide hybrid ligand for binding to CRBN (inhibition of luciferase signal): specifically inhibit hybrid-ligand induced luciferase reporter activation in a dose-dependent manner; also recorded: competed efficiently
[5]
  compound-induced binding of IKZF1 to CRBN (luciferase reporter signal): can be detected with both the forward and the inverse assay configuration
[6]
  compound-induced binding of SALL4 to CRBN (luciferase reporter signal): only in the inverse assay setup an interaction signal response could be detected
[7]
  compound-induced binding of IKZF3 to CRBN (luciferase reporter signal): an interaction signal response could be detected
[8]
  compound-induced binding of ZFP91 to CRBN (luciferase reporter signal): an interaction signal response could be detected
